Literature values, collected in US20250059156A1, “THERAPEUTIC ALKALOID COMPOUNDS” (Sensorium Therapeutics, Inc., priority 2022, published 2025).

Biological target: 5-HT transporter (SERT) (Homo sapiens (Human), UniProt P31645)
Conditions: concentration response curve; cited from earlier work

SMILES: COc1ccc([C@@]23C=CC(=O)C[C@@H]2N(C)CC3)cc1OC [Mesembrenone]
- 5-HT transporter (SERT) nH: 1.0
